Read-outs that look alike come from different tables or passages of the source.

For data set [1] the following is noted: amide bond, 28-membered ring.
The conditions of data set [2]: amide bond, 28-membered ring. This is another data set of the same source.

Take `CC[C@H](C)[C@@H]1NC(=O)[C@@H](CCCNC(=N)N)NC(=O)[C@H](CC(C)C)NC(=O)[C@H]([C@H](O)C(C)C)NC(=O)[C@@H](NC(=O)OCc2ccccc2)[C@@H](c2ccccc2)NC(=O)[C@H](CO)NC(=O)[C@H]([C@@H](C)O)NC(=O)CNC(=O)[C@H]([C@H](C)O)NC1=O`: in data set [1] (from Z-Phe((3R)-3-NH2)-Leu((3R)-3-OH)-Leu-dArg-Ile-aThr-Gly-Thr-Ser-OH?, HATU/NMM, DMF, 0.0 °C), the ring closure, yield after HPLC came to 65%. In data set [1] (from Z-dAla(3-tBu)-Ala(3-tBu)-(3R)3-amino-Phe(free 3-NH2)-(3R)3-OH-Leu-Leu-dArg-Ile-aThr-Gly-Asn-Ser-OH, HATU/NMM, DMF, 1.14 mM, 4.0 °C), `CC[C@H](C)[C@@H]1NC(=O)[C@@H](CCCNC(=N)N)NC(=O)[C@H](CC(C)C)NC(=O)[C@H]([C@H](O)C(C)C)NC(=O)[C@@H](NC(=O)[C@H](CC(C)(C)C)NC(=O)[C@@H](CC(C)(C)C)NC(=O)OCc2ccccc2)[C@@H](c2ccccc2)NC(=O)[C@H](CO)NC(=O)[C@H](CC(N)=O)NC(=O)CNC(=O)[C@H]([C@H](C)O)NC1=O` yielded a ring closure, yield after HPLC of 80%. `CC[C@H](C)[C@@H]1NC(=O)[C@@H](CCCNC(=N)N)NC(=O)[C@H](CC(C)C)NC(=O)[C@H]([C@H](O)C(C)C)NC(=O)[C@@H](NC(=O)OCc2ccccc2)[C@@H](c2ccccc2)NC(=O)[C@H](CO)NC(=O)[C@H](Cc2ccccc2)NC(=O)CNC(=O)[C@H]([C@H](C)O)NC1=O` returned a ring closure, yield after HPLC in data set [1] (from Z-Phe((3R)-3-NH2)-Leu((3R)-3-OH)-Leu-dArg-Ile-aThr-Gly-Phe-Ser-OH?, HATU/NMM, DMF, 0.0 °C) of 96%. “N^2.1-(Benzyloxycarbonyl)-[(3R)-3-amino-L-alanyl)]-[(3R)-3-hydroxy-L-leucyl]-L-leucyl-D-arginyl-L-isoleucyl-L-allothreonyl-glycyl-[(3S)-3-hydroxy-L-asparaginyl]-L-serine C^1.9-N^3.1-lactam hydrochloride” had a ring closure, yield after HPLC in data set [1] (Et3N (Pfp ester), CHCl3, 0.11 mM, 3 steps) of 15.9%. In the case of `CC[C@H](C)[C@@H]1NC(=O)[C@@H](CCCN(C(=N)NC(=O)OCc2ccccc2)C(=O)OCc2ccccc2)NC(=O)[C@H](CC(C)C)NC(=O)[C@H]([C@H](O)C(C)C)NC(=O)[C@@H](NC(=O)[C@H](CC(C)(C)C)NC(=O)[C@@H](CC(C)(C)C)NC(=O)OCc2ccccc2)[C@@H](c2ccccc2)NC(=O)[C@H](CO)NC(=O)[C@H](CC(N)=O)NC(=O)CNC(=O)[C@H]([C@H](C)O)NC1=O`, the ring closure, yield after HPLC in data set [1] (from Z-dAla(3-tBu)-Ala(3-tBu)-(3R)3-amino-Phe(free 3-NH2)-(3R)3-OH-Leu-Leu-dArg(Z)2-Ile-aThr-Gly-Asn-Ser-OH, HATU/NMM, DMF, 1.1 mM, 25.0 °C) amounted to 90.1%. For `CC[C@H](C)[C@@H]1NC(=O)[C@@H](CCCNC(=N)N)NC(=O)[C@H](CC(C)C)NC(=O)[C@H]([C@H](O)C(C)C)NC(=O)[C@@H](NC(=O)OCc2ccccc2)[C@@H](c2ccccc2)NC(=O)[C@H](CO)NC(=O)[C@H](Cc2cccnc2)NC(=O)CNC(=O)[C@H]([C@H](C)O)NC1=O`, in data set [1] (from Z-Phe((3R)-3-NH2)-Leu((3R)-3-OH)-Leu-dArg-Ile-aThr-Gly-Ala(3-pyridyl)-Ser-OH, HATU/NMM, DMF, 0.0 °C), the ring closure, yield after HPLC was 51%. As to “[(3R)-N^2-(Benzyloxycarbonyl)-3-amino-L-phenylalanyl]-[(3R)-3-hydroxy-L-leucyl]-L-leucyl-D-arginyl-L-leucyl-L-allothreonyl-glycyl-L-seryl-L-serine C^1.9-N^3.1-lactam trifluoroacetate”, the ring closure, isolated yield in data set [2] is 87%.

In the case of “[(3R)-N^2-(Benzyloxycarbonyl)-3-amino-L-phenylalanyl]-[(3R)-3-hydroxy-L-leucyl]-L-valyl-D-arginyl-L-isoleucyl-L-allothreonyl-glycyl-L-seryl-L-serine C^1.9-N^3.1-lactam trifluoroacetate”, the ring closure, isolated yield in data set [2] came to 100%. As for “{(3R)-N^2-[(9H-Fluoren-9-ylmethoxy)carbonyl]-3-amino-L-phenylalanyl}-[(3R)-3-hydroxy-L-leucyl]-L-leucyl-(N^5-benzyloxycarbonyl-D-ornithyl)-L-isoleucyl-L-allothreonyl-glycyl-L-seryl-L-serine C^1.9-N^3.1-lactam trifluoroacetate”, in data set [2], the ring closure, isolated yield came to 48%. “[(3R)-N^2-(Benzyloxycarbonyl)-3-amino-L-phenylalanyl]-[(3R)-3-hydroxy-L-leucyl]-L-leucyl-D-arginyl-L-isoleucyl-L-allothreonyl-glycyl-L-asparaginyl-L-serine C^1.9-N^3.1-lactam trifluoroacetate”: in data set [2] (HATU/NMM, DMF, 0.0 °C), the ring closure, isolated yield is 75%.

As for “[(3R)-N^2-(Benzyloxycarbonyl)-3-amino-L-phenylalanyl]-[(3R)-3-hydroxy-L-leucyl]-L-norleucyl-D-arginyl)-L-isoleucyl-L-allothreonyl-glycyl-L-alanyl-L-serine C^1.9-N^3.1-lactam trifluoroacetate”, in data set [2], the ring closure, isolated yield came out at 80%.

In turn, `CC[C@H](C)[C@@H]1NC(=O)[C@@H](CCCNC(=N)N)NC(=O)[C@H](CC(C)C)NC(=O)[C@H]([C@H](O)C(C)C)NC(=O)[C@@H](NC(=O)OCc2ccccc2)[C@@H](c2ccccc2)NC(=O)[C@H](CO)NC(=O)[C@H](CO)NC(=O)CNC(=O)[C@H]([C@H](C)O)NC1=O` registered a ring closure, yield after HPLC in data set [1] (from Z-Phe((3R)-3-NH2)-Leu((3R)-3-OH)-Leu-dArg-Ile-aThr-Gly-Ser-Ser-OH, HATU/NMM, DMF, 19.4 mM, 0.0 °C) of 43%. For “[(3R)-N^2-(Benzyloxycarbonyl)-3-amino-L-phenylalanyl]-[(3R)-3-hydroxy-L-leucyl]-L-leucyl-D-arginyl-L-isoleucyl-L-allothreonyl-glycyl-[(3S)-3-hydroxy-L-asparaginyl]-L-serine C^1.9-N^3.1-lactam trifluoroacetate”, the ring closure, isolated yield in data set [2] (HATU/NMM, DMF, 0.0 °C) stood at 73%. “[(3R)-N^2-(Benzyloxycarbonyl)-3-amino-L-phenylalanyl]-[(3R)-3-hydroxy-L-leucyl]-L-isoleucyl-D-arginyl-L-isoleucyl-L-allothreonyl-glycyl-L-seryl-L-serine C^1.9-N^3.1-lactam trifluoroacetate” came in with a ring closure, isolated yield in data set [2] of 62%.

In turn, “[(3R)-N^2-(Benzyloxycarbonyl)-3-amino-L-phenylalanyl]-[(3R)-3-hydroxy-L-leucyl]-L-leucyl-D-arginyl-L-isoleucyl-L-allothreonyl-D-seryl-L-seryl-L-serine C^1.9-N^3.1-lactam trifluoroacetate” came in with a ring closure, isolated yield in data set [2] of 93%.

`CC[C@H](C)[C@@H]1NC(=O)[C@@H](CCCNC(=O)OCc2ccccc2)NC(=O)[C@H](CC(C)C)NC(=O)[C@H]([C@H](O)C(C)C)NC(=O)[C@@H](NC(=O)[C@H](CC(C)(C)C)NC(=O)[C@@H](CC(C)(C)C)NC(=O)OCc2ccccc2)[C@@H](c2ccccc2)NC(=O)[C@H](CO)NC(=O)[C@H](CC(N)=O)NC(=O)CNC(=O)[C@H]([C@H](C)O)NC1=O`: the ring closure, yield after HPLC in data set [1] (from Z-dAla(3-tBu)-Ala(3-tBu)-(3R)3-amino-Phe(free 3-NH2)-(3R)3-OH-Leu-Leu-dOrn(Z)-Ile-aThr-Gly-Asn-Ser-OH, HATU/NMM, DMF, 4.0 °C) turned out to be 91.3%. The molecule “[(3R)-N^2-(Benzyloxycarbonyl)-3-amino-L-phenylalanyl]-[(3R)-3-hydroxy-L-leucyl]-L-leucyl-D-arginyl-L-valyl-L-allothreonyl-glycyl-L-seryl-L-serine C^1.9-N^3.1-lactam trifluoroacetate” registered a ring closure, isolated yield in data set [2] of 91%. Same read-out and setting: next, “[(3R)-N^2-(Benzyloxycarbonyl)-3-amino-L-phenylalanyl]-[(3R)-3-hydroxy-L-leucyl]-L-leucyl-D-arginyl-L-isoleucyl-L-leucyl-glycyl-L-seryl-L-serine C^1.9-N^3.1-lactam trifluoroacetate”: 97%; “[(3R)-N^2-(Benzyloxycarbonyl)-3-amino-L-phenylalanyl]-[(3R)-3-hydroxy-L-leucyl]-L-norvalyl-D-arginyl-L-isoleucyl-L-allothreonyl-glycyl-L-alanyl-L-serine C^1.9-N^3.1-lactam trifluoroacetate”: 100%. As for “[(3R)-N^2-(Benzyloxycarbonyl)-3-amino-L-phenylalanyl]-[(3R)-3-hydroxy-L-leucyl]-L-leucyl-D-arginyl-L-phenylalanlyl-L-allothreonyl-glycyl-L-seryl-L-serine C^1.9-N^3.1-lactam trifluoroacetate”, the ring closure, isolated yield in data set [2] came to 76%.

Values taken from patent publication US8076285B2, “Lysobactin amides” (Aicuris GmbH & Co. KG, priority 2006, dated 2011).
